In data set [1] the target is T1, ΔF508 CFTR (Homo sapiens, UniProt P13569, DEL508-508).
T1 construct: host or cells: CFBE41o- TetON cells, expression induced with doxycycline
The data set is described as follows: CSE-HRP: cell surface expression horseradish peroxidase assay in CFBE41o- cells. In kind it is cell-based. The settings on record: for Emax: CFBE41o-. As for the experimental part: A CFBE41o– cell line stably expressing ΔF508 CFTR harboring an HRP-tag in the fourth extracellular loop was obtained from Professor Gergely Lukacs (Department of Physiology, McGill University, Montreal, QC, Canada).[25] Cells were grown in Eagle’s minimal essential medium (Life Technologies) supplemented with 10% FBS, 1% L-glutamine (Life Technologies), 10 mM HEPES (Life Technologies), 200 μg/mL Geneticin (Life Technologies), and 3 μg/mL puromycin (Sigma) in culture flasks coated with 0.01% bovine serum albumin (BSA) (Sigma), 30 μg/mL Purecol (Nutacon), and 0.001% human fibronectin (Sigma).
CFBE41o– TetON cells expressing HRP tagged ΔF508-CFTR were seeded in white 384-well plates (Greiner) at a density of 2000 cells per well. Medium containing 500 ng/mL doxycycline was used to induce expression of ΔF508-CFTR-HRP. After 3 days, cells were treated with corrector or potentiator compounds and transferred to an incubator at 33 °C. On day 4, cells were washed five times with PBS containing Ca^2+ and Mg^2+ using a Bio-Tek plate washer and incubated with a chemiluminescent HRP substrate (SuperSignal West Pico Chemiluminescent Substrate, Thermo Scientific) for 15 min. Chemiluminescence was measured using an Envision plate reader (PerkinElmer). Dose response data was fitted using a 4 parameter hill function of the form Response = neg control + (pos control – neg control)/(1 + 10^(log EC50-concentration)/HillSlope) to determine EC50 values. Percentage efficacy was calculated using the following formula: (max response – neg control)/(C1 response – neg control).

Data set [2] in a line: PK rat. The data set is classed as in vivo. The settings on record: male, Sprague-Dawley, plasma; for Vd: read-out: Vss. As for the experimental part:
These studies were performed with naïve male Sprague–Dawley rats (Janvier France, 6–8 weeks old). Rats were dosed iv via a bolus in the tail vein with a dose level of 0.1 mg/kg or orally as a single esophageal gavage with a dose level of 5 mg/kg. For the iv route, the compound was formulated in PEG200/water (60/40; v/v). For the oral route, the compound was formulated in MC 0.5% (2/98) as a homogeneous suspension. Before the oral dosing, the animals were deprived of food for at least 12 h before compound administration until 3 h after administration. All animals had free access to the tap water. Blood samples were collected under light anesthesia and placed into tubes containing Li-heparin as an anticoagulant. Blood samples were collected up to 24 h after dosing (n = 3 rats per route). After centrifugation, the resulting plasma samples were assayed by LC-MS/MS with a nongood laboratory practice (non-GLP)-validated method. PK parameters were calculated by noncompartmental analysis using WinNonlin software (Certara, Princeton, NJ, USA).

Data set [3] can be described thus: Plasma protein binding, human. In kind it is in vitro ADME. The settings on record: human, plasma, pH 7.4, human plasma; read-out: PPB % human (converted). As for the experimental part: (§1) Plasma protein binding was determined by equilibrium dialysis using the Pierce Red Device plate with inserts (ThermoScientific). Test compound at 5 μM (0.5% DMSO) spiked in freshly thawed human, rat, mouse, or dog plasma (Bioreclamation INC, Westbury, NY, USA) was dialyzed against phosphate-buffered saline (PBS, pH 7.4) at 37 °C under shaking for 4 h. Aliquots were taken from each side of the well, and matrix matched. Proteins were precipitated with an excess of acetonitrile, samples were mixed and centrifuged, and the supernatant was analyzed by liquid chromatography–mass spectrometry/mass spectrometry (LC–MS/MS). Addition of compound peak areas in the buffer chamber and the plasma chamber was considered to be 100% compound.

Data set [4] in a line: Plasma protein binding, rat. The settings on record: pH 7.4, read-out: PPB % rat (converted). In kind it is in vitro ADME. The procedure:
as §1

Data set [5] has as its target T1, ΔF508 CFTR. The data set is described as follows: TECC (transepithelial clamp circuit) in primary CF-derived HBE cells. In kind it is cell-based. As for the experimental part: Bronchial epithelial cells isolated from the lungs of patients with CF homozygous for the ΔF508 CFTR mutation were obtained from McGill University (Montreal, QC, Canada) or the University of North Carolina (Chapel Hill, NC, United States). Cells were isolated from lungs obtained from donors undergoing planned transplantation. These primary cells were cultured directly on type IV collagen-coated polycarbonate Transwell supports with a diameter of 6.5 mm and pore size of 0.4 μm (Costar, #3397) for 18–25 days in an air–liquid interface, essentially as previously described for TECC.[23]
Twenty-four hours prior to the electrophysiological recording, corrector and/or potentiator compounds were added on both the apical and basolateral sides. TECC recordings were performed by using the TECC instrument developed and sold by EP Design (Bertem, Belgium). During the recording, the epithelial cells were bathed in a NaCl-Ringer solution (120 mM NaCl, 20 mM HEPES, 1.2 mM CaCl2, 1.2 mM MgCl2, 0.8 mM KH2PO4, 0.8 mM K2HPO4, 5 mM glucose, pH 7.4) on both the basolateral (640 μL) and the apical (160 μL) sides and kept at 37 °C. Corrector and potentiator compounds were readded at the same concentration used during the 24 h pretreatment. Apical amiloride was used to inhibit the endogenous ENaC currents (100 μM), while forskolin (10 μM) was applied on both the apical and basolateral sides to stimulate CFTR. Measurements were done during a 20 min time frame with recordings every 2 min. The transepithelial potential and transepithelial resistance were measured in an open circuit and transformed to Ieq using Ohm’s law. The maximal increase in Ieq (ΔIeq, the difference in current before and after forskolin or potentiator treatment) was used as a measure for the increased CFTR activity. EC50 values were generated by measuring the impact of different concentrations of compounds on ΔIeq in primary cells. For this purpose, each transwell was treated with a different compound concentration. CFTRInh-172 was added apically at 10 μM to assess the specificity of the response. Dose response data was fitted using a 3-parameter hill function of the form Response = Bottom + (Top – Bottom)/(1 + (EC50/concentration)) to determine EC50 values. Percentage efficacy was calculated using the following formula: (max response – neg control)/(C1 response – neg control).

[6] abbreviates: no additional corrector, relative to lumacaftor or 5 (3 μM) positive control, read-out: CSE-HRP % max activation.
Where [7] appears, read: no additional corrector, 24 h incubation, 33 °C, geometric mean, read-out: CSE-HRP EC50.
Setting [8] is: in the presence of C1 corrector 5, relative to 5 (3 μM) positive control, read-out: CSE-HRP with 5 % max activation.
Setting [9] is: in the presence of C1 corrector 5, read-out: CSE-HRP with 5 EC50.

pEC50: −log10 of the molar value. Like-named read-outs stand apart in the source and are kept apart here. Some results are limits rather than exact numbers.

T1 sequence (P13569 with tags, fused parts or gaps DEL508-508): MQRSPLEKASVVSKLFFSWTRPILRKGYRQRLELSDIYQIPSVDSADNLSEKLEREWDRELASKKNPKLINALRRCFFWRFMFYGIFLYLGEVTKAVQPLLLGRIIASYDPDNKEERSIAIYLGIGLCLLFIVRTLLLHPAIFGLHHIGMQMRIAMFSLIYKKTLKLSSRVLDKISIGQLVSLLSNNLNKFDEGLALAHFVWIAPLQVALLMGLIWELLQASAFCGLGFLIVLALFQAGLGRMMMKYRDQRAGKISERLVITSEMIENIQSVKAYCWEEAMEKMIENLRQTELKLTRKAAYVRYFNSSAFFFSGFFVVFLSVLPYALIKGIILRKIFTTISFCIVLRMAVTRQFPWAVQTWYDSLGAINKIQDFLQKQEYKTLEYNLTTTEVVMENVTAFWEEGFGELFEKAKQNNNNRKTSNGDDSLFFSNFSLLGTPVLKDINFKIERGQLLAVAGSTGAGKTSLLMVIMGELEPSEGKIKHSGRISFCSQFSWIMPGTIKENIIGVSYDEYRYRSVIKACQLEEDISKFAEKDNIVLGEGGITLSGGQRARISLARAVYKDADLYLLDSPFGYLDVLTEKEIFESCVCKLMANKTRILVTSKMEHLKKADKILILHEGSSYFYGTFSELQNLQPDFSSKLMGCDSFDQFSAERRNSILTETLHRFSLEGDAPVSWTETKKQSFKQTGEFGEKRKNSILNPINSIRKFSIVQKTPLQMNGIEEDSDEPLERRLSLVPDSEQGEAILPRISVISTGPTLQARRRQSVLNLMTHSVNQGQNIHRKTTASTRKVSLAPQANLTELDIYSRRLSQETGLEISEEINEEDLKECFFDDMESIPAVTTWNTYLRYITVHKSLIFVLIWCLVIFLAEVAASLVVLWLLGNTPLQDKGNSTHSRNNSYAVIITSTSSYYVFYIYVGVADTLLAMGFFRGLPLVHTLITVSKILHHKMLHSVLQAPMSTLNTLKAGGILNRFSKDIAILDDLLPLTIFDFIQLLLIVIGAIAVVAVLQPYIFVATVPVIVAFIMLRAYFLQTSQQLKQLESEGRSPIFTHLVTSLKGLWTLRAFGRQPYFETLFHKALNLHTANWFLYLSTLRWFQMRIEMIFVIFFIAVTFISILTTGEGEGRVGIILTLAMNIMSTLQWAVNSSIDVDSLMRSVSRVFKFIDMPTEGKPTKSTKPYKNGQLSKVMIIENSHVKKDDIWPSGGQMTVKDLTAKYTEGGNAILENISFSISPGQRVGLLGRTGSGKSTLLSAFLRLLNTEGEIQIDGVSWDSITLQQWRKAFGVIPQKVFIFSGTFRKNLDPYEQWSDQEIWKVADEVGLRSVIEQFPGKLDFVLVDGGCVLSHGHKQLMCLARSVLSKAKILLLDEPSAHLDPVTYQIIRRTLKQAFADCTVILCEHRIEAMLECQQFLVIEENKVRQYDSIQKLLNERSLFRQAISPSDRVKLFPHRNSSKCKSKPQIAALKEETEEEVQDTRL

For `Cc1nn(C2CCN(C)CC2)c2nc(C(=O)O)cc(-c3ccc(N4CCOCC4)cc3)c12` [Compound 14], the Emax in data set [1] (setting [6]) was -2%. Also, the negative-log EC50 (pEC50) (commonly the negative decadic logarithm of the EC50, by convention in mol/L) in data set [1] (setting [7]) was 5.00.
With `O=C(O)c1cc(-c2ccc(N3CCOCC3)cc2)c2cnn(-c3ccccc3)c2n1` [Compound 15], the Emax in data set [1] (setting [6]) came out at 116%. In data set [1] (setting [7]), the pEC50 is 5.90.
On the same counts, the results for `CC(C)c1nn(-c2ccccc2)c2nc(C(=O)O)cc(-c3ccc(N4CCOCC4)cc3)c12` [Compound 16] are 184% and 6.35.
Consider `O=C(O)c1cc(-c2ccc(N3CCOCC3)cc2)c2c(C3CCC3)nn(-c3ccccc3)c2n1` [Compound 18], for which the clearance in data set [2] (1 mg/kg, iv dosing, read-out: plasma clearance (converted)) is 3.33 mL/min/kg; in data set [2] (iv, 0.1 mg/kg, formula-strings file, unit inferred, read-out: Cl (converted)) it was 3.33 mL/min/kg. The Vd in data set [2] (iv, 0.1 mg/kg, formula-strings file, unit inferred) came out at 0.474 L/kg; in data set [2] (iv, 1 mg/kg, 1 mg/kg iv) it was 0.474 L/kg. Further, the fraction unbound at 4 h, 5 μM in data set [3] is 0.01.
On to `COCCNc1ccc(-c2cc(C(=O)O)nc3c2c(C)nn3-c2ccccc2)cc1` [Compound 24], for which the Emax in data set [1] (setting [6]) turned out to be 175%. Besides, the pEC50 in data set [1] (setting [7]) is 5.67.
On the same counts, the results for `COCCN(C)c1ccc(-c2cc(C(=O)O)nc3c2c(C)nn3-c2ccccc2)cc1` [Compound 25] are 204% and 5.83.
On the same counts, the results for `CC(=O)c1cc(-c2ccc(N3CCOCC3)cc2)c2c(C)nn(-c3ccccc3)c2n1` [Compound 29] are 8.2% and 5.00.
On the same counts, the results for `Cc1nn(-c2ccccc2)c2nc(CO)cc(-c3ccc(N4CCOCC4)cc3)c12` [Compound 30] are 15% and 5.00.
As to `Cc1nn(-c2ccccc2)c2nc(C(C)O)cc(-c3ccc(N4CCOCC4)cc3)c12` (centres unmarked) [Compound 31], the Emax in data set [1] (setting [6]) came to 8.8%. Besides, the negative-log EC50 (pEC50) in data set [1] (setting [7]) was 5.00.
Taken in the same sequence, the figures for `Cc1nn(-c2ccccc2)c2nc(C(C)(C)O)cc(-c3ccc(N4CCOCC4)cc3)c12` [Compound 32] were 5% and 5.00.
On the same counts, the results for `Cc1nn(-c2ccccc2)c2nc(C(=O)NCC(F)(F)F)cc(-c3ccc(N4CCOCC4)cc3)c12` [Compound 33] are 7% and 5.00.
In the case of `COc1cc(-c2cc(-c3ccc(N4CCOCC4)cc3)c3c(C)nn(-c4ccccc4)c3n2)n[nH]1` [Compound 34], in data set [1] (setting [6]), the Emax is 4%. The pEC50 in data set [1] (setting [7]) is 5.00.
Regarding `Cc1nn(-c2ccccc2)c2nc(CC(=O)O)cc(-c3ccc(N4CCOCC4)cc3)c12` [Compound 35], in data set [1] (setting [6]), the Emax was determined as 24%. Further, in data set [1] (setting [7]), the negative-log EC50 (pEC50) was 5.00.
On the same counts, the results for `Cc1nn(-c2ccccc2)c2nc(C(=O)NC#N)cc(-c3ccc(N4CCOCC4)cc3)c12` [Compound 36] are 96% and 5.53.
`CS(=O)(=O)NC(=O)c1cc(-c2ccc(N3CCOCC3)cc2)c2c(C3CCC3)nn(-c3ccccc3)c2n1` [Compound 39]: the fraction unbound at 4 h, 5 μM in data set [3] is 0.0005.
For `COCCN(C)c1ccc(-c2cc(C(=O)O)nc3c2c(C2CCC2)nn3-c2ccccc2)cc1` [Compound 40], the Emax was 325% in data set [1] (setting [8]) and 173% in data set [1] (setting [6]). Besides, the pEC50 is 6.35 in data set [1] (setting [9]) and 6.27 in data set [1] (setting [7]).
On the same counts, the results for `COCCN(C)c1ccc(-c2cc(C(=O)O)nc3c2c(C2CCC2)nn3-c2ccccc2)cn1` [Compound 42] are 417%, 191%, 6.32 and 6.28.
`CS(=O)(=O)NC(=O)c1cc(N2CCCCC2)c2c(C3CCC3)nn(-c3ccccc3)c2n1` [Compound 46]: the fraction unbound at 4 h, 5 μM in data set [4] is 0.001; in data set [3] it was < 0.001.
On the same counts, the results for `COC1CCN(c2cc(C(=O)NS(C)(=O)=O)nc3c2c(C2CCC2)nn3-c2ccccc2)CC1` [Compound 47] are 0.002 and 0.002.
With `CS(=O)(=O)NC(=O)c1cc(N2CCC(C#N)CC2)c2c(C3CCC3)nn(-c3ccccc3)c2n1` [Compound 48], the fraction unbound at 4 h, 5 μM in data set [4] and in data set [3] was 0.003 throughout. Also, the Emax in data set [5] (primary ΔF508 homozygous HBE cells, 24 h incubation, with GLPG2222, read-out: TECC HBE with GLPG2222 % max activation) was determined as 265%. The pEC50 in data set [5] (primary ΔF508 homozygous HBE cells, 24 h incubation, with GLPG2222, read-out: TECC HBE with GLPG2222 EC50) is 7.22.
With `CC1(C)Cc2c(sc(NC(=O)c3ccn[nH]3)c2C(N)=O)C(C)(C)O1` [GLPG1837, reference compound], the fold in data set [5] (no C2 corrector (reference)) is given as 1 fold. In data set [5] (no C2 corrector, C1 corrector GLPG2222 (4) 0.15 μM, read-out: EC50 of potentiator GLPG1837), the pEC50 was 7.89.

For the origin of these results see article PMC11017246, “Discovery of GLPG2737, a Potent Type 2 Corrector of CFTR for the Treatment of Cystic Fibrosis in Combination with a Potentiator and a Type 1 Co-corrector” (Journal of Medicinal Chemistry, 2024).
